What was measured:
[1] = test system: M. smegmatis ATCC 607; experiment: MIC, broth microdilution; format: cell-based, Mycobacterium smegmatis; details: Mycolicibacterium smegmatis, ATCC607, Table 1
Excerpt: (§1) The microbial strains used in this study were obtained from the collection of the Gause Institute of New Antibiotics. The control strains included in the analysis were S. aureus ATCC 29213, E. coli ATCC 25922, P. aeruginosa ATCC 27853, M. smegmatis ATCC 607. Clinical isolates E. coli MAR17-1350, K. pneumoniae APEX-5, K. pneumoniae MAR14-3395, and K. pneumoniae MAR18-1752 with multidrug resistance, including resistance to aminoglycosides were kindly provided by the Research Institute of Antimicrobial Chemotherapy (RIAC) of the Smolensk State Medical University, Smolensk. The microbial cultures were stored at −75 °C in trypticase soy broth (Becton, Dickinson, France) containing 10–15% glycerol. Storage was carried out in accordance with CLSI guidelines. Prior to experimentation, the bacterial strains were revived from cryopreservation by inoculating them onto trypticase soy agar (Becton, Dickinson, France) and incubating at (36 ± 1) °C for 16–24 h. Individual morphologically homogeneous colonies were then suspended in sterile physiological saline, and the turbidity of the suspension was adjusted to 0.5 McFarland units using a DEN-1 spectrophotometer (Biosan, Riga, Latvia), which corresponds to a concentration of 1.5 × 10^8 CFU/mL.
(§2) The samples were dissolved in sterile distilled water, depending on the physicochemical properties of the compounds under investigation, to a concentration of 10,000 µg/mL. Working solutions were then prepared by serial dilution, resulting in concentrations ranging from 64 µg/mL to 0.125 µg/mL.
(§3) Activity was evaluated by determining the minimum inhibitory concentration (MIC) values using the microdilution method in Mueller–Hinton Broth (Beckton and Dickinson, Le Pont-de-Claix, France), in accordance with the standard procedure for assessing the antimicrobial susceptibility of microorganisms.
(§4) The analysis was conducted in 96-well microtiter plates (Medpolymer, Saint Petersburg, Russia). The bacterial inoculum was introduced within 15 min of preparation. MIC values were determined after incubation for 15–18 h at (36 ± 1) °C. Microbial growth in the presence of the tested compounds was compared to the growth control (without exposure to the test samples). The MIC was defined as the lowest concentration at which visible microbial growth was inhibited.
(§5) To ensure the accuracy of the results, the control antibiotics kanamycin A, gentamycin, and tobramycin (Abcr GmbH, Karlsruhe, Germany) were included, along with standard reference strains: E. coli ATCC 25922. The MIC values for kanamycin A were determined as follows: E. coli ATCC 25922—1–4 µg/mL [22]. For gentamycin, the MIC values were E. coli ATCC 25922–0.25–1 µg/mL [23]. For tobramycin, the MIC values were E. coli ATCC 25922–0.25–1 µg/mL [23]. The MIC values of the reference strains were required to fall within the acceptable ranges specified in [24], provided that standard assay conditions were maintained.

[2] = test system: S. aureus ATCC 29213; experiment: MIC, broth microdilution; format: cell-based; details: Staphylococcus aureus, ATCC29213, Table 1
Excerpt: as §1, §2, §3, §4, §5

[3] = test system: P. aeruginosa ATCC 27853; experiment: MIC, broth microdilution; format: cell-based; details: Pseudomonas aeruginosa, ATCC27853, Table 1
Excerpt: as §1, §2, §3, §4, §5

[4] = test system: HEK293T human embryonic kidney cell line; experiment: Cytotoxicity, MTT test; format: cell-based; details: HEK-293T, 72 h, 2-250 µg/mL, read-out: IC50, viability of HEK293T cells
Protocol: The MTT test was performed in order to evaluate the effect of the compounds on eukaryotic cells’ survivability. Compounds 5a,b, 8a,b, and apramycin, as the reference drug, were tested on HEK293T human embryonic kidney cell line (ATCC). Compounds 5a,b, 8a,b, and apramycin were prepared as water solutions with a 50 mg/mL concentration. The HEK293T cell line was cultivated in DMEM/F-12 medium (Paneco LLC, Moscow, Russia) containing 10% FBS, 50 µg/mL penicillin, and 50 µg/mL streptomycin (Thermo Fisher Scientific, USA) at 37 °C in 5% CO2. Triplicates on 96-well plates were used, and 2500 HEK293T cells were seeded in 140 µL of DMEM/F-12 medium in each well during day one. The next day, compounds in twofold successive dilutions were added to these plates (concentrations in wells ranged between 2 and 250 µg/mL for 5a, 5b, and 8a, 8b). Plates were incubated for 72 h at 37 °C in 5% CO2. Afterwards, 0.5 mg/mL of the MTT reagent (Paneco LLC, Moscow, Russia) was added to each well. After 2 h of incubation, the media with MTT was replaced with 140 µL of DMSO, and all plates were placed on a shaker for 10 min for formazan to dissolve. Finally, the absorbance at a 555 nm wavelength was measured on all plates via the plate reader Victor X5 (PerkinElmer, Waltham, MA, USA). The data were then normalized, and dose–response curves and IC50 were calculated by means of GraphPad Prism version 8.0.2. (GraphPad Software, Inc., San Diego, CA, USA).

| SMILES | MIC [1] [µg/mL] | MIC [2] [µg/mL] | MIC [3] [µg/mL] | IC50 [4] [µg/mL] |
| --- | --- | --- | --- | --- |
| CNC1C(OC2OC(CNCCN)C(N)C(O)C2O)OC2CC(N)C(OC3C(N)CC(N)C(O)C3O)OC2C1O (stereo not shown) [Compound 5a, 6″-((2-Aminoethyl-1)-amino)-6″-deoxyapramycin acetate] | 0.25 | 2 | 8 | 243 ± 7 |
| CNC1C(OC2OC(CNCCCNC(=N)N)C(N)C(O)C2O)OC2CC(N)C(OC3C(N)CC(N)C(O)C3O)OC2C1O (stereo not shown) [Compound 8b, 6″-((3-Guanidinopropyl-1)-amino)-6″-deoxyapramycin acetate] | 0.125 | 0.5 | 8 | > 250 |
| CNC1C(OC2OC(CNCCCN)C(N)C(O)C2O)OC2CC(N)C(OC3C(N)CC(N)C(O)C3O)OC2C1O (stereo not shown) [Compound 5b, 6″-((3-Aminopropyl-1)-amino)-6″-deoxyapramycin acetate] | 0.25 | 2 | 16 | > 250 |
| CNC1C(OC2OC(CNCCNC(=N)N)C(N)C(O)C2O)OC2CC(N)C(OC3C(N)CC(N)C(O)C3O)OC2C1O (stereo not shown) [Compound 8a, 6″-((2-Guanidinoethyl-1)-amino)-6″-deoxyapramycin acetate] | 0.125 | 0.5 | 8 | > 250 |

— paper PMC12736951, “Design, Synthesis, and Biological Evaluation of 6″-Modified Apramycin Derivatives to Overcome Aminoglycoside Resistance” (Pharmaceutics, 2025)
